Test results reported in article PMC4880283, “Crystal Structures of Putative Sugar Kinases from Synechococcus Elongatus PCC 7942 and Arabidopsis Thaliana” (PLoS ONE, 2016).
Values belong to the compound of their own block, whether it stands above or below them.

Legend:
AtXK-1 [1] = target: T1, AtXK-1 (Arabidopsis thaliana, UniProt Q8L794); assay: X-ray crystal structure (soak); assay type: binding; settings: crystal soaked in 10 mM AMP-PNP, 20 mM MgCl2; ATP site in domain II
T1 construct: gene XK1; mature form (436 aa) without chloroplast transit peptide; forward primer encodes VMSGNKGT; pMCSG7, N-terminal His6 removed by TEV protease, E. coli BL21(DE3)

SePSK [2] = target: T2, SePSK (Synechococcus elongatus, UniProt Q31KC7); assay: X-ray crystal structure, […] A (soak); assay type: binding; settings: crystal soaked in 10 mM AMP-PNP, 20 mM MgCl2; ATP site in domain II
T2 construct: gene PSK; full length (426 aa), pET28-a (Nco I/Xho I), C-terminal His6 tag kept, E. coli BL21(DE3)

SePSK [3] = target: T2, SePSK; assay: ADP-Glo kinase assay; assay type: biochemical; settings: 100 uM ATP, no sugar, 1 mM MgCl2, 20 mM HEPES pH 7.4, 298 K
AtXK-1 [4] = target: T1, AtXK-1; assay: ADP-Glo kinase assay; assay type: biochemical; settings: 100 uM ATP, no sugar, 1 mM MgCl2, 20 mM HEPES pH 7.4, 298 K
SePSK [5] = target: T3, SePSK (Synechococcus elongatus, UniProt Q31KC7, T11A); assay: ADP-Glo kinase assay; assay type: biochemical; settings: 5 mM D-ribulose, 100 uM ATP, 1 mM MgCl2, 20 mM HEPES pH 7.4, 298 K; activity much lower than wild type
T3 construct: gene PSK; full length (426 aa), pET28-a (Nco I/Xho I), C-terminal His6 tag kept, E. coli BL21(DE3)

SePSK [6] = target: T4, SePSK (Synechococcus elongatus, UniProt Q31KC7, D221A); assay: ADP-Glo kinase assay; assay type: biochemical; settings: 5 mM D-ribulose, 100 uM ATP, 1 mM MgCl2, 20 mM HEPES pH 7.4, 298 K; activity much lower than wild type
T4 construct: gene PSK; full length (426 aa), pET28-a (Nco I/Xho I), C-terminal His6 tag kept, E. coli BL21(DE3)

SePSK [7] = target: T5, SePSK (Synechococcus elongatus, UniProt Q31KC7, D8A); assay: surface plasmon resonance (single-cycle kinetics, CM5); assay type: binding; settings: rate constant (off-rate), not an equilibrium Kd; 1:1 Langmuir fit; 20 mM HEPES pH 7.5, 100 mM NaCl; 298 K
T5 construct: gene PSK; full length (426 aa), pET28-a (Nco I/Xho I), C-terminal His6 tag kept, E. coli BL21(DE3)

SePSK [8] = target: T5, SePSK; assay: ADP-Glo kinase assay; assay type: biochemical; settings: 5 mM D-ribulose, 100 uM ATP, 1 mM MgCl2, 20 mM HEPES pH 7.4, 298 K; activity much lower than wild type

T1 sequence (Q8L794 43-478): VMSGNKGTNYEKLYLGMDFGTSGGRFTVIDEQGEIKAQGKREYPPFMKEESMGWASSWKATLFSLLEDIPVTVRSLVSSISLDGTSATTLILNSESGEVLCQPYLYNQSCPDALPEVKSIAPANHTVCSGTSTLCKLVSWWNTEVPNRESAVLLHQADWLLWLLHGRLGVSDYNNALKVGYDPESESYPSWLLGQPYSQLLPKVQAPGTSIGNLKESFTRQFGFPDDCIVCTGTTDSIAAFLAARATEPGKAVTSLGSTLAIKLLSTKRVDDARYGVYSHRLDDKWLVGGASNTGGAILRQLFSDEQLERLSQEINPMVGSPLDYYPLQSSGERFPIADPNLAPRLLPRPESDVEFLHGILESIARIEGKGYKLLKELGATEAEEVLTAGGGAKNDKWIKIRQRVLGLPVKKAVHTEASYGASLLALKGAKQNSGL
T5 sequence (Q31KC7 whole entry D8A): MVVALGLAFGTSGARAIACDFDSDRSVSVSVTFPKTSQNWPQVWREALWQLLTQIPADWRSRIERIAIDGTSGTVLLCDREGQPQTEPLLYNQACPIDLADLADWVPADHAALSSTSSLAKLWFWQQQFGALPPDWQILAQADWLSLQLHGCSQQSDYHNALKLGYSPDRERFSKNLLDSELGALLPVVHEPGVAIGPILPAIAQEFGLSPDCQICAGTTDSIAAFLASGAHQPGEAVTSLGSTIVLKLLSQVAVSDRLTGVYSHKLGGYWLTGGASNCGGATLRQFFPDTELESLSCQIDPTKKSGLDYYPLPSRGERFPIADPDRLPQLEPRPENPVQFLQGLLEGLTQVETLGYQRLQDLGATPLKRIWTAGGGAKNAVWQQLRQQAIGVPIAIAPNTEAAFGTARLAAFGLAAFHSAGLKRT
T2 sequence (Q31KC7 whole entry, the tested form may be a part): as the sequence (Q31KC7 whole entry D8A) above, with A8D counted along it
T3 sequence (Q31KC7 whole entry T11A): as the sequence (Q31KC7 whole entry D8A) above, with A8D, T11A counted along it
T4 sequence (Q31KC7 whole entry D221A): as the sequence (Q31KC7 whole entry D8A) above, with A8D, D221A counted along it

Structure (SMILES): Nc1ncnc2c1ncn2[C@@H]1O[C@H](COP(=O)(O)OP(=O)(O)NP(=O)(O)O)[C@@H](O)[C@H]1O [AMP-PNP]
X-ray crystal structure (soak) (AtXK-1 [1]): soaked the crystals of apo-SePSK and apo-AtXK-1 into the reservoir adding AMP-PNP
X-ray crystal structure, 2.3 A (soak) (SePSK [2]): one SePSK protein molecule is in an asymmetric unit with one AMP-PNP molecule

Structure (SMILES): Nc1ncnc2c1ncn2[C@@H]1O[C@H](COP(=O)(O)OP(=O)(O)OP(=O)(O)O)[C@@H](O)[C@H]1O [ATP]
ADP-Glo kinase assay (SePSK [3]): both SePSK and AtXK-1 exhibited ATP hydrolysis activity
ADP-Glo kinase assay (AtXK-1 [4]): both SePSK and AtXK-1 exhibited ATP hydrolysis activity

Dissociation rate constant (koff) (SePSK [7]): 9 ms^-1
Structure (SMILES): O=C(CO)[C@H](O)[C@H](O)CO [D-ribulose]
ADP-Glo kinase assay (SePSK [5]): all of these mutants exhibit much lower activity of ATP hydrolysis after adding D-ribulose
ADP-Glo kinase assay (SePSK [6]): all of these mutants exhibit much lower activity of ATP hydrolysis after adding D-ribulose
ADP-Glo kinase assay (SePSK [8]): all of these mutants exhibit much lower activity of ATP hydrolysis after adding D-ribulose
